SMILES strings stand for the structures.

The target in the experiment is T1, Angiotensin Converting Enzyme (Oryctolagus cuniculus, UniProt P12822).
T1 construct: The enzyme was isolated from rabbit lung and purified via calcium phosphate gel; from tissue; host or cells: rabbit lung
T1 sequence (P12822 34-1310): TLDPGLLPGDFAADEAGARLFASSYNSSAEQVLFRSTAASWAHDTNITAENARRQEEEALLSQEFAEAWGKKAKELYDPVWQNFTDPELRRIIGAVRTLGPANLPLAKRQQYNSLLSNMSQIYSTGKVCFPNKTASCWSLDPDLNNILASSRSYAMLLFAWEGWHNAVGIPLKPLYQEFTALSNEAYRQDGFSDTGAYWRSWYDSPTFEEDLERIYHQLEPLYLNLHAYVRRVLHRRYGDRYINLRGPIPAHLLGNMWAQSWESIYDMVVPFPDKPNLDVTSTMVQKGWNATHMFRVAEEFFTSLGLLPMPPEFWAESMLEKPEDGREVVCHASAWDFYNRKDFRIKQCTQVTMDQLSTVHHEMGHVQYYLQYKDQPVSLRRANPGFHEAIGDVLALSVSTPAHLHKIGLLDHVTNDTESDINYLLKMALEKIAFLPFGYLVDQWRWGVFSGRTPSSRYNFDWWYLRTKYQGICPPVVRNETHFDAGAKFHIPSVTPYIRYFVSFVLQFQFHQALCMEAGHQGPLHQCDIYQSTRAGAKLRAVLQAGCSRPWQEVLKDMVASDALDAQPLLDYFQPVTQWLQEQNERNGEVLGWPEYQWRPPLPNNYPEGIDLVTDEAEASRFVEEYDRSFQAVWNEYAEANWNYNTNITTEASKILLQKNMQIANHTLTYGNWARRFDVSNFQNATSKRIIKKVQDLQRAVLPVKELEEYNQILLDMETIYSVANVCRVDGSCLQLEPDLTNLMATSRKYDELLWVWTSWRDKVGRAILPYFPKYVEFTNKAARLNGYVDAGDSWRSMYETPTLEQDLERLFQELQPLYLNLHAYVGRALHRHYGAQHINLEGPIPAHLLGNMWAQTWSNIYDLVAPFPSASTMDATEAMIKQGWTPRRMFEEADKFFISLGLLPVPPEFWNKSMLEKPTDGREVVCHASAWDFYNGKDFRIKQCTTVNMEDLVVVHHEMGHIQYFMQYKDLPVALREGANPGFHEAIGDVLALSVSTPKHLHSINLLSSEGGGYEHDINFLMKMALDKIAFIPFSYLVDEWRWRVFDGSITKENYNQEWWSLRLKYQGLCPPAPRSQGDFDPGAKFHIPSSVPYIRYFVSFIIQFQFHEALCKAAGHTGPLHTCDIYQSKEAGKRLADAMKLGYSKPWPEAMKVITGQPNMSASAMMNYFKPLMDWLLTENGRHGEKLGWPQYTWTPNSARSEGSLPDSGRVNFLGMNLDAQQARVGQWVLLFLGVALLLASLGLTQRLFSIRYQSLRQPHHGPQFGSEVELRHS
Nature of the experiment: Inhibition of Angiotensin Converting Enzyme (fluorometric histidylleucine release from angiotensin I). The note with it: enzyme from rabbit lung; human angiotensin I substrate; pH 7.5; 30 minutes at 37° C; inhibitor range 10^-4 to 10^-9 M; read-out: Concentration giving 50% Inhibition of Conversion of Angiotensin I to Angiotensin II. It counts as biochemical. The source says: The compounds are useful in the treatment of hypertension and congestive heart failure by virtue of their ability to inhibit angiotensin converting enzyme. […] Certain compounds of the present invention were examined as to their ability to inhibit angiotensin converting enzyme in the following test system.
ASSAY OF INHIBITORS OF ANGIOTENSIN CONVERTING ENZYME
The procedure for the assay of angiotensin I converting enzyme activity was essentially that described by Cheung and Cushman, Biochemica et Biophysica Acta, 293, 451-463 (1973). The enzyme was isolated from rabbit lung and purified via calcium phosphate gel, and DEAE-cellulose column chromatography. Human angiotensin I was employed as the substrate. The assay is dependent on the fluorometric measurement of the rate of release of the dipeptide histidylleucine from the substrate by the enzyme when the released dipeptide is reacted with o-phthalicdicarboxaldehyde. A standard curve is prepared with known quantities of histidylleucine.
Incubations were conducted at 37° C. in 13×100 mm. test tubes containing a final volume of 250 μl. The conditions of the assay employed were as follows: 100 μl. of 0.3 mM angiotensin I dissolved in saline-phosphate buffer (30 mM NaCl, 100 mM potassium phosphate, pH 7.5) and 50 μl. of saline-phosphate buffer (or test compound dissolved in the buffer) were allowed to stand at least three minutes at ambient temperature. The enzymic reaction was initiated by adding 100 μl. of enzyme solution containing 25 to 50 μg. protein/ml., determined by the Lowry method. The tubes were incubated for 30 minutes at 37° C. The reaction was terminated by adding 1.45 ml. of 300 mM NaOH followed with 100 μl. of 0.2 percent o-phthalicdicarboxaldehyde in methanol. After ten minutes, 200 μl. of 3M HCl were added. The final volume in the tubes was 2 ml. Fluorometric determinations (365 nm excitation and 500 nm emission) were made after 30 minutes but within 90 minutes after termination of the reaction.
The concentration of the inhibitors were adjusted so that a range of concentrations of 10^-4 to 10^-9 M was obtained in the reaction tubes. Inhibition was measured by the decrease in activity from that of control tubes without inhibitor. Activity was recorded as the molar concentration of inhibitor producing a 50 percent decrease in converting enzyme activity relative to the controls and is summarized in Table I.
Take `C[C@@H](C(=O)O)N1CCC(C)(CS)C1=O` (stereo partly drawn) [Example 1, (αS)-3-(mercaptomethyl)-α,3-dimethyl-2-oxo-1-pyrrolidineacetic acid]: the IC50 came out at 1000 nM.
For `CCC1(CS)CCN([C@@H](C)C(=O)O)C1=O` (stereo partly drawn) [Example 2, (αS)-3-ethyl-3-(mercaptomethyl)-α-methyl-2-oxo-1-pyrrolidineacetic acid], the IC50 worked out at 2000 nM.
The same measure for `C[C@@H](C(=O)O)N1CC[C@](CS)(Cc2ccccc2)C1=O` [Example 3, (αS,3R)-3-(mercaptomethyl)-α-methyl-2-oxo-3-benzyl-1-pyrrolidineacetic acid]: 5000 nM.
`C[C@@H](C(=O)O)N1CC[C@@](CS)(Cc2ccccc2)C1=O` [Example 4, (S,S)-3-(mercaptomethyl)-α-methyl-2-oxo-3-benzyl-1-pyrrolidine-acetic acid]: the IC50 was more than 100000 nM.

(Values after patent US4552889A, “3-Mercaptomethyl-2-oxo-1-pyrrolidine acetic acids and use for hypertension” (Eli Lilly and Company, priority 1983, dated 1985).)
